The experiment addresses T1, GSK-3β (AA 1-420) (Homo sapiens, UniProt P49841).
T1 construct: GSK-3β (AA 1-420)
Description: Ki determination for the inhibition of GSK-3, standard coupled enzyme system. It counts as biochemical. The procedure: Final substrate concentrations in the assay were 20 μM ATP (Sigma Chemicals, St Louis, Mo.) and 300 μM peptide (HSSPHQS(PO3H2)EDEEE, American Peptide, Sunnyvale, Calif.). Reactions were carried out at 30° C. and 20 nM GSK-3β. Final concentrations of the components of the coupled enzyme system were 2.5 mM phosphoenolpyruvate, 300 μM NADH, 30 μg/ml pyruvate kinase and 10 μg/ml lactate dehydrogenase.
An assay stock buffer solution was prepared containing all of the reagents listed above with the exception of ATP and the test compound of interest. The assay stock buffer solution (175 μl) was incubated in a 96 well plate with 5 μl of the test compound of interest at final concentrations spanning 0.002 μM to 30 μM at 30 ° C. for 10 min. […] The reaction was initiated by the addition of 20 μl of ATP (final concentration 20 μM). Rates of reaction were obtained using a Molecular Devices Spectramax plate reader (Sunnyvale, Calif.) over 10 min at 30° C. The Ki values were determined from the rate data as a function of inhibitor concentration.

[1] abbreviates: 20 μM ATP, 300 μM peptide, 20 nM GSK-3β, 30° C., read-out: Ki values for GSK-3.

pKi: −log10 of the molar value. Read-outs that look alike come from different tables or passages of the source.

T1 sequence (P49841 whole entry, the tested form may be a part): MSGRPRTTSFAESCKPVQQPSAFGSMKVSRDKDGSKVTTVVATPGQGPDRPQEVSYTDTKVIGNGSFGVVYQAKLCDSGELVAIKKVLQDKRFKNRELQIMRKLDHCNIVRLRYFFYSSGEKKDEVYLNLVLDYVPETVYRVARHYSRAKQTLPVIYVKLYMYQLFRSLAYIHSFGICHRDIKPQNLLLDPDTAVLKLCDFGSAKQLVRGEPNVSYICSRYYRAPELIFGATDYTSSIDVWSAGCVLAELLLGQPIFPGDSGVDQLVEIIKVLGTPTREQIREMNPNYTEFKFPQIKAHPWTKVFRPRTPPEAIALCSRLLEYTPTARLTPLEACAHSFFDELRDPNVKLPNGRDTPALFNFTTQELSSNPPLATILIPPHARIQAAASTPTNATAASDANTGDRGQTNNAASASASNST

For the compound `CC1=NNC(=O)/C1=N\Nc1ccccc1Cl` [Compound 8], the pKi under setting [1] was 6.00 to 7.00.
On the same count and under the same terms, then `O=C1NN=C(c2ccccc2)/C1=N/Nc1ccccc1Cl` [Compound 12], with 6.00 to 7.00.
As to `O=C1NN=C(c2ccccn2)/C1=N/Nc1ccccc1Cl` [Compound 14], the negative logarithm of the Ki (pKi) under setting [1] was 6.00 to 7.00.
For the compound `O=C1NN=C(c2cccnc2)/C1=N/Nc1ccccc1Cl` [Compound 15], the pKi under setting [1] was 6.00 to 7.00.
The same measure, in the same setting: the result for `O=C1NN=C(c2ccncc2)/C1=N/Nc1ccccc1Cl` [Compound 16] reads 6.00 to 7.00; that for `O=C1NN=C(c2ccccn2)C1=NNc1ccc(Cl)cc1` [Compound 17], 6.00 to 7.00.
Same read-out and setting: then `O=C1NN=C(c2cccnc2)C1=NNc1ccc(Cl)cc1` [Compound 18], with > 7.00.
Consider `COc1ccc(N/N=C2\C(=O)NN=C2c2cccnc2)cc1` [Compound 20], for which the pKi is > 7.00.
Regarding `COc1ccc(N/N=C2\C(=O)NN=C2c2ccncc2)cc1` [Compound 21], the pKi under setting [1] was > 7.00.
The same measure, in the same setting: then `O=C1NN=C(c2ccncc2)C1=NNc1ccc(Cl)cc1` [Compound 24], with > 7.00; and `O=C1NN=C(c2ccccc2)/C1=N/Nc1ccc(Cl)cc1` [Compound 25], with > 7.00.
The same measure, in the same setting: then `COc1ccc(N/N=C2\C(=O)NN=C2c2ccccn2)cc1` [Compound 26], with 6.00 to 7.00.
The same measure, in the same setting: the result for `O=C1NN=C(c2ccccc2F)C1=NNc1ccc(Cl)cc1` [Compound 27] reads 6.00 to 7.00.
Take `COc1ccc(NN=C2C(=O)NN=C2c2ccccc2F)cc1` [Compound 33]: the negative-log Ki (pKi) under setting [1] is 6.00 to 7.00.
Turning to `CCN(CC)c1ccc(N/N=C2\C(=O)NN=C2c2ccc(OC)cc2)cc1` [Compound 36], the pKi under setting [1] was > 7.00.
`CCN(CC)c1ccc(NN=C2C(=O)NN=C2c2cc(OC)c(OC)c(OC)c2)cc1` [Compound 38]: the pKi under setting [1] was 6.00 to 7.00.
Still for that read-out and setting: then `COc1cc(N2CCOCC2)ccc1NN=C1C(=O)NN=C1c1ccc(OC)c(OC)c1` [Compound 40], with 6.00 to 7.00; and `O=C1NN=C(c2ccc3c(c2)OCO3)C1=NNc1ccc(Cl)cc1` [Compound 45], with > 7.00.
Still for that read-out and setting: then `COc1ccc(NN=C2C(=O)NN=C2c2ccc3c(c2)OCO3)cc1` [Compound 48], with > 7.00.
Same read-out and setting: then `COc1cccc(C2=NNC(=O)/C2=N\Nc2ccc(Cl)cc2)c1` [Compound 49], with > 7.00; and `COc1ccc(N/N=C2\C(=O)NN=C2c2cccc(OC)c2)cc1` [Compound 50], with > 7.00; and `COc1ccc(C2=NNC(=O)/C2=N\Nc2ccc(N(C)C)cc2)cc1` [Compound 51], with > 7.00.
As to `COc1cccc(C2=NNC(=O)/C2=N\Nc2ccc(N(C)C)cc2)c1` [Compound 53], the negative logarithm of the Ki (pKi) under setting [1] is > 7.00.
Regarding `COc1ccc(C2=NNC(=O)C2=NNc2ccc(Br)cc2)cc1` [Compound 54], the pKi under setting [1] is > 7.00.
The same measure, in the same setting: the result for `COc1ccc(C2=NNC(=O)C2=NNc2ccc(Br)cc2)cc1OC` [Compound 55] reads > 7.00.
As to `COc1cccc(C2=NNC(=O)C2=NNc2ccc(Br)cc2)c1` [Compound 56], the pKi under setting [1] was > 7.00.
The same measure, in the same setting: then `COc1ccc(C2=NNC(=O)/C2=N\Nc2ccc(C#N)cc2)cc1` [Compound 57], with > 7.00; and `COc1cccc(C2=NNC(=O)/C2=N\Nc2ccc(C#N)cc2)c1` [Compound 59], with > 7.00.
The same measure, in the same setting: the result for `COc1ccc(C2=NNC(=O)C2=NNc2ccc(C(F)(F)F)cc2)cc1` [Compound 63] reads > 7.00.
Same read-out and setting: then `COc1ccc(C2=NNC(=O)C2=NNc2ccc(C(F)(F)F)cc2)cc1OC` [Compound 64], with > 7.00.
For the compound `COc1cccc(C2=NNC(=O)C2=NNc2ccc(C(F)(F)F)cc2)c1` [Compound 65], under setting [1], the pKi is > 7.00.
As to `COc1ccc(C2=NNC(=O)C2=NNc2cccc(C(F)(F)F)c2)cc1` [Compound 66], under setting [1], the pKi was > 7.00.
With `COc1ccc(C2=NNC(=O)C2=NNc2cccc(C(F)(F)F)c2)cc1OC` [Compound 67], the pKi under setting [1] is > 7.00.
Same read-out and setting: the result for `COc1cccc(C2=NNC(=O)C2=NNc2cccc(C(F)(F)F)c2)c1` [Compound 68] reads > 7.00.
Same read-out and setting: then `COc1ccc(C2=NNC(=O)/C2=N\Nc2cccc(Cl)c2)cc1` [Compound 69], with > 7.00; and `COc1cccc(C2=NNC(=O)/C2=N\Nc2cccc(Cl)c2)c1` [Compound 71], with > 7.00.
Regarding `COc1ccc(C2=NNC(=O)C2=NNc2cccc(OC)c2)cc1` [Compound 72], the pKi under setting [1] is > 7.00.
Consider `COc1cccc(N/N=C2\C(=O)NN=C2c2cccc(OC)c2)c1` [Compound 74], for which the pKi under setting [1] was > 7.00.
Still for that read-out and setting: then `N#Cc1ccc(C2=NNC(=O)C2=NNc2ccc(Cl)cc2)cc1` [Compound 75], with > 7.00; and `COc1ccc(NN=C2C(=O)NN=C2c2ccc(C#N)cc2)cc1` [Compound 76], with 6.00 to 7.00; and `COc1ccc(C2=NNC(=O)C2=NNc2ccc([N+](=O)[O-])cc2)cc1` [Compound 77], with > 7.00.
Regarding `COc1cccc(C2=NNC(=O)C2=NNc2ccc([N+](=O)[O-])cc2)c1` [Compound 78], the pKi under setting [1] is > 7.00.
For `COc1ccc(C2=NNC(=O)C2=NNc2ccc(-c3ccccc3)cc2)cc1OC` [Compound 80], the pKi under setting [1] is > 7.00.
In the case of `COc1ccc(C2=NNC(=O)C2=NNc2ccc(-c3ccc(F)cc3)cc2)cc1` [Compound 82], under setting [1], the pKi is > 7.00.
`COc1ccc(C2=NNC(=O)C2=NNc2ccc(-c3ccc(F)cc3)cc2)cc1OC` [Compound 83]: the pKi under setting [1] is > 7.00.
On the same count and under the same terms, then `COc1cccc(C2=NNC(=O)C2=NNc2ccc(-c3ccc(F)cc3)cc2)c1` [Compound 84], with 6.00 to 7.00; and `COc1ccc(C2=NNC(=O)C2=NNc2ccc(Oc3ccccc3)cc2)cc1` [Compound 85], with > 7.00; and `COc1cccc(C2=NNC(=O)C2=NNc2ccc(Oc3ccccc3)cc2)c1` [Compound 87], with > 7.00.
The same measure, in the same setting: then `COc1ccc(C2=NNC(=O)C2=NNc2cccc(Oc3ccccc3)c2)cc1` [Compound 88], with > 7.00.
For `COc1ccc(C2=NNC(=O)C2=NNc2cccc(Oc3ccccc3)c2)cc1OC` [Compound 89], the pKi under setting [1] was > 7.00.
Same read-out and setting: the result for `COc1cccc(C2=NNC(=O)C2=NNc2cccc(Oc3ccccc3)c2)c1` [Compound 90] reads > 7.00; that for `COc1ccc(C2=NNC(=O)C2=NNc2ccc(OC)c(-c3cccc(N)c3)c2)cc1OC` [Compound 105, 4-[(3′-Amino-6-methoxy-biphenyl-3-yl)-hydrazono]-5-(3,4-dimethoxy-phenyl)-2,4-dihydro-pyrazol-3-one], > 7.00.
Regarding `COc1ccc(C2=NNC(=O)C2=NNc2ccc(OC)c(-c3cc(OC)c(OC)c(OC)c3)c2)cc1OC` [Compound 109, 5-(3,4-Dimethoxy-phenyl)-4-[(6,3′,4′,5′-tetramethoxy-biphenyl-3-yl)-hydrazono]-2,4-dihydro-pyrazol-3-one], under setting [1], the negative-log Ki (pKi) is > 7.00.
In the case of `CCOc1cc(N2CCOCC2)c(OCC)cc1NN=C1C(=O)NN=C1c1ccc(OC)c(OC)c1` [Compound 111, 4-[(2,5-Diethoxy-4-morpholin-4-yl-phenyl)-hydrazono]-5-(3,4-dimethoxy-phenyl)-2,4-dihydro-pyrazol-3-one], under setting [1], the pKi was 6.00 to 7.00.
As to `COc1cc(OC)c(NN=C2C(=O)NN=C2c2ccc(OC)c(OC)c2)c(OC)c1` [Compound 112, 5-(3,4-Dimethoxy-phenyl)-4-[(2,4,6-trimethoxy-phenyl)-hydrazono]-2,4-dihydro-pyrazol-3-one], under setting [1], the pKi is 6.00 to 7.00.
`COc1cc(C2=NNC(=O)C2=NNc2ccc(N3CCOCC3)cc2OC)ccc1O` [Compound 113, 5-(4-Hydroxy-3-methoxy-phenyl)-4-[(2-methoxy-4-morpholin-4-yl-phenyl)-hydrazono]-2,4-dihydro-pyrazol-3-one]: the pKi under setting [1] is 6.00 to 7.00.
Take `COc1ccc(C2=NNC(=O)C2=NNc2ccc(OC)c(N3CCOCC3)c2)cc1OC` [Compound 123, 5-(3,4-Dimethoxy-phenyl)-4-[(4-methoxy-3-morpholin-4-yl-phenyl)-hydrazono]-2,4-dihydro-pyrazol-3-one]: under setting [1], the pKi is > 7.00.
The same measure, in the same setting: the result for `COc1ccc(NN=C2C(=O)NN=C2c2cc(OC)c(OC)c(OC)c2)cc1N1CCOCC1` [Compound 124, 4-[(4-Methoxy-3-morpholin-4-yl-phenyl)-hydrazono]-5-(3,4,5-trimethoxy-phenyl)-2,4-dihydro-pyrazol-3-one] reads > 7.00; that for `COc1ccc(C2=NNC(=O)C2=NNc2ccc(OC)c(N3CCN(C)CC3)c2)cc1OC` [Compound 125, 5-(3,4-Dimethoxy-phenyl)-4-{[4-methoxy-3-(4-methyl-piperazin-1-yl)-phenyl]-hydrazono}-2,4-dihydro-pyrazol-3-one], > 7.00.
Turning to `COc1cc(C2=NNC(=O)C2=NNc2ccc(OC)c(N3CCN(C)CC3)c2)ccc1OCc1ccccc1` [Compound 126, 5-(4-Benzyloxy-3-methoxy-phenyl)-4-{[4-methoxy-3-(4-methyl-piperazin-1-yl)-phenyl]-hydrazono}-2,4-dihydro-pyrazol-3-one], the pKi under setting [1] is > 7.00.
Turning to `COc1ccc(C2=NNC(=O)C2=NNc2cccc(-c3ccccc3)c2)cc1` [Compound 203], under setting [1], the pKi was > 7.00.
As to `COc1ccc(C2=NNC(=O)C2=NNc2cccc(-c3ccccc3)c2)cc1OC` [Compound 204], the pKi under setting [1] was > 7.00.
For `O=C1NN=C(c2ccc(N3CCOCC3)cc2)C1=NNc1cccc(-c2ccccc2)c1` [Compound 205], under setting [1], the pKi is > 7.00.
Same read-out and setting: then `COc1ccc(C2=NNC(=O)C2=NNc2ccc3c(c2)C(=O)c2ccccc2-3)cc1` [Compound 206], with > 7.00.

Source of the values: US6916798B2, “Inhibitors of GSK-3 and uses thereof” (Vertex Pharmaceuticals Incorporated, priority 2001, dated 2005).
